# Results from patent US8389511B2, “Bicyclic heterocyclic derivative” (Dainippon Sumitomo Pharma Co., Ltd., priority 2007, dated 2013).
# Counter-ions that a name gives are not always drawn.
# Target: T1, Recombinant human renin (Homo sapiens, UniProt P00797)
# T1 sequence (P00797 67-406): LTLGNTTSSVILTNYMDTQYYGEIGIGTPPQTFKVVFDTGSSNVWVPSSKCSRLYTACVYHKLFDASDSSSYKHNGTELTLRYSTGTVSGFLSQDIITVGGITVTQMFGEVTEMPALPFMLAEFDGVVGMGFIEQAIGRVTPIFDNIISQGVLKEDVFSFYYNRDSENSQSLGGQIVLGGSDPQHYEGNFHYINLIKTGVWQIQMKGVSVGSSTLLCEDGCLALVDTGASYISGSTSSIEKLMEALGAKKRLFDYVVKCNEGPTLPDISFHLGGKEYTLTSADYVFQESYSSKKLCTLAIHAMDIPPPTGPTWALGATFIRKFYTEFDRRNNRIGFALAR
# Test: In vitro renin inhibitory activity assay (fluorescence, EDANS/DABCYL peptide substrate)
# Format: biochemical
# Settings: recombinant human renin (50 ng), 0.1M HEPES buffer pH 7.4, substrate 4 μM, 37° C., one hour, fluorescence 340/500 nm
# Description: In Vitro Renin Inhibitory Activity Assay
# Recombinant human renin (50 ng) was reacted in 0.1M HEPES buffer (pH 7.4) containing 0.1M NaCl, 1 mM EDTA and 0.1 mg/mL BSA together with a substrate and a test compound at 37° C. for one hour. As the substrate, Arg-Glu(EDANS)-[…]DABCYL)-Arg or DABCYL-γ-Abu-[…]EDANS was added in such an amount so that the final concentration thereof became 4 μM. The elevated fluorescence intensity at the exciting wavelength 340 nm and the fluorescence wavelength 500 nm was measured by a fluorescence plate reader.
row,IC50,Compound
1,4.6 nM,CCc1cc2c(cc1C(=O)N(C(C)C)[C@@H]1CCCNC1)N(CCNC(=O)OC)C(=O)C(C)(C)O2 [Example 80]
2,2.2 nM,CCC(=O)NCCN1C(=O)C(C)(C)Oc2cc(F)c(C(=O)N(CC)[C@H]3CNCC[C@@H]3c3cccc(OC)c3)cc21 [Example 265]
3,15 nM,CCn1c(=O)n(CCCCOC)c2cc(C(=O)N(C(C)C)[C@@H]3CCCNC3)c(C(F)(F)F)cc21 [Example 261]
4,1.7 nM,COCCCCN1C(=O)C(C)(COCCOC)Oc2cc(C(F)(F)F)c(C(=O)N(C(C)C)C3CCCNC3)cc21 (centres unmarked) [Example 212]
5,11 nM,COCCCN1C(=O)[C@@H](C)Oc2cc(C)c(C(=O)N(C(C)C)[C@@H]3CCCNC3)cc21 [Example 18]
6,1.8 nM,COCCCCN1C(=O)C(C)(CO)Oc2cc(C(F)(F)F)c(C(=O)N(C(C)C)C3CCCNC3)cc21 (centres unmarked) [Example 217]
7,39 nM,CCC(=O)NCCN1C(=O)C(C)(C)Oc2cc(C(F)(F)F)c(C(=O)N(C(C)C)C3CNCCC3c3cccc(-c4ccccc4)c3)cc21 (centres unmarked) [Example 238]
8,1.2 nM,COC(=O)NCCN1C(=O)C(C)(COc2cccc(OC)c2)Oc2cc(C(F)(F)F)c(C(=O)N(C(C)C)C3CCCNC3)cc21 (centres unmarked) [Example 210]
9,30 nM,CCC(=O)NCCn1c(=O)n(CC)c2cc(C(F)(F)F)c(C(=O)N(C(C)C)[C@@H]3CCCNC3)cc21 [Example 262]
10,4 nM,COCCCCN1C(=O)C(C)(C)Oc2cc(C#N)c(C(=O)N(C(C)C)[C@@H]3CCCNC3)cc21 [Example 162]
11,19.2 nM,CCc1cc2c(cc1C(=O)N(C(C)C)[C@@H]1CCCNC1)N(CCCCOC)C(=O)C(C)(C)O2 [Example 79]
12,0.2 nM,COC(=O)NCCN1C(=O)[C@](C)(c2cc(F)cc(F)c2)Oc2cc(Br)c(C(=O)N(C(C)C)[C@@H]3CCCNC3)cc21 [Example 36]
13,0.7 nM,"COCCCN1C(=O)C(C)(C)Oc2cc(Br)c(C(=O)N(C(C)C)[C@@H]3CCCNC3)cc21 [Example 1, 7-Bromo-N-isopropyl-4-(3-methoxypropyl)-2,2-dimethyl-3-oxo-N-[(3R)-piperidin-3-yl]-3,4-dihydro-2H-1,4-benzoxazine-6-carboxamide hydrochloride]"
14,17.4 nM,COCCCCN1C(=O)C(C2CCOCC2)Oc2cc(C(F)(F)F)c(C(=O)N(C(C)C)C3CCCNC3)cc21 (centres unmarked) [Example 205]
15,0.7 nM,COCCCCN1C(=O)[C@@H](C)Oc2cc(C(F)(F)F)c(C(=O)N(C(C)C)[C@@H]3CCCNC3)cc21 [Example 66]
16,20 nM,"CCC(=O)NCCN1C(=O)C(C)(C)c2cc(Cl)c(C(=O)N(C(C)C)[C@@H]3CCCNC3)cc21 [Example 255, 5-Chloro-N-isopropyl-3,3-dimethyl-2-oxo-N-[(3R)-piperidin-3-yl]-1-[2-(propionylamino)ethyl]-indoline-6-carboxamide hydrochloride]"
17,2.2 nM,CCC(=O)NCCN1C(=O)C(C)(C)Oc2cc(C(F)(F)F)c(C(=O)N(CC)C3CNCCC3c3ccccc3)cc21 (centres unmarked) [Example 243]
18,0.6 nM,CCC(=O)NCCN1C(=O)C(C)(c2cccc(C#N)c2)Oc2cc(C(F)(F)F)c(C(=O)N(C(C)C)C3CCCNC3)cc21 (centres unmarked) [Example 224]
19,1.1 nM,CCOC(=O)COCC1(C)Oc2cc(C(F)(F)F)c(C(=O)N(C(C)C)C3CCCNC3)cc2N(CCCCOC)C1=O (centres unmarked) [Example 216]
20,2 nM,COC(=O)NCCN1C(=O)C(C)(COc2ccccc2)Oc2cc(C(F)(F)F)c(C(=O)N(C(C)C)C3CCCNC3)cc21 (centres unmarked) [Example 209]
21,1.3 nM,CCC(=O)NCCN1C(=O)C(C)(C)Oc2cc(C(F)(F)F)c(C(=O)N(C3CCC3)[C@@H]3CCCNC3)cc21 [Example 202]
22,23.8 nM,COCC(O)CCN1C(=O)C(C)(C)Oc2cc(C(F)(F)F)c(C(=O)N(C(C)C)C3CCCNC3)cc21 (centres unmarked) [Example 251]
23,14 nM,"COCCCCN1C(=O)C(C)(C)c2cc(Cl)c(C(=O)N(C(C)C)[C@@H]3CCCNC3)cc21 [Example 254, 5-Chloro-3,3-dimethyl-N-isopropyl-1-(4-methoxybutyl)-2-oxo-N-[(3R)-piperidin-3-yl] indoline-6-carboxamide hydrochloride]"
24,0.3 nM,CCC(=O)NCCN1C(=O)C(C)(c2cccc(OS(C)(=O)=O)c2)Oc2cc(C(F)(F)F)c(C(=O)N(C(C)C)C3CCCNC3)cc21 (centres unmarked) [Example 229]
25,8.4 nM,COCCCCN1C(=O)C2(CCOCC2)Oc2cc(C)c(C(=O)N(C(C)C)[C@@H]3CCCNC3)cc21 [Example 48]
26,1.5 nM,COCC(=O)CCN1C(=O)C(C)(C)Oc2cc(C(F)(F)F)c(C(=O)N(C(C)C)C3CCCNC3)cc21 (centres unmarked) [Example 252]
27,1.5 nM,CCC(=O)NCCN1C(=O)C(C)(c2cc(C#N)ccc2F)Oc2cc(C(F)(F)F)c(C(=O)N(C(C)C)C3CCCNC3)cc21 (centres unmarked) [Example 228]
28,82 nM,"COCCCCN1C(=O)C(C)(C)Oc2cc(C(F)(F)F)c(C(=O)N(C(C)C)C3CCNC3)cc21 (centres unmarked) [Example 201, N-Isopropyl-4-(4-methoxybutyl)-2,2-dimethyl-3-oxo-N-pyrrolidine-3-yl-7-(trifluoromethyl)-3,4-dihydro-2H-1,4-benzoxazine-6-carboxamide hydrochloride]"
29,0.8 nM,COC(=O)NCCN1C(=O)[C@](C)(c2cc(F)cc(F)c2)Oc2cc(Cl)c(C(=O)N(C(C)C)[C@@H]3CCCNC3)cc21 [Example 30]
